Activity, ED50 and LD50 data for five molecules are collected here from ChEMBL document CHEMBL3272158, “2-Azabicyclo (2.2.2)octane analogues of the prodine analgetics” (J Med Chem, 1976).

In data set [1] the test system is Rattus norvegicus. The data set can be described thus: Analgetic activity in albino rat at 100 mg/kg, ip measured 15 mins interval by tail-flick method. It is filed as functional, organism-based. Details: dose 100 mg/kg. Background: Hot-plate and tail-flick tests time the reaction to a heat stimulus.
Data set [2] has as its system Rattus norvegicus. As to the kind of experiment: Analgetic activity in ip dosed albino rat measured 15 mins interval by tail-flick method. It is filed as functional. The note with it: 0.25 h.
Data set [3] in a line: Toxicity in ip dosed albino rat. It is filed as organism-based. The following applies: in vivo.

Active and inactive are the calls of the source. The rule behind the calls is not given here.

`CCC(=O)O[C@@]1(c2ccccc2)C[C@H]2CC[C@H]1CN2C`: the result in data set [1] was inactive.

A word on the ED50: it is the midpoint of the dose-response relation. Higher therefore signals weaker potency. The LD50 is the dose at which mortality reaches 50%. A higher LD50 goes with a less toxic substance. In data set [2], `CCC(=O)OC1(c2ccccc2)CCN(C)CC1C` (racemic) [ALPHAPRODINE] gave an ED50 of 1.4 mg/kg. The molecule also gave an LD50 in data set [3] of 22 mg/kg.

As for `CCC(=O)O[C@@]1(c2ccccc2)C[C@H]2CC[C@H]1N(C)C2` (relative stereo), in data set [1], the outcome was inactive. In data set [2], this molecule registered an ED50 of 3.1 mg/kg. In addition, the LD50 in data set [3] amounted to 12.3 mg/kg.

Regarding `CCC(=O)O[C@@]1(c2ccccc2)C[C@H]2CC[C@H]1N(Cc1ccccc1)C2` (relative stereo), the outcome in data set [1] was inactive.

On to `CCC(=O)O[C@]1(c2ccccc2)C[C@H]2CC[C@H]1N(C)C2` (relative stereo), for which the outcome in data set [1] was inactive.
